# What was measured:
# Alpha-glucosidase [1] = target: T1, Alpha-glucosidase (Saccharomyces cerevisiae S288c, UniProt P53341+P38158+P07265); experiment: Inhibition of Saccharomyces cerevisiae alpha-glucosidase using p-nitrophenyl glucopyranoside as substrate preincubated for 10 mins followed by substrate addition and measured after 20 mins by spectrophotometric analysis; assay type: protein assay
# Alpha-glucosidase [2] = target: T1, Alpha-glucosidase; experiment: Competitive inhibition of Saccharomyces cerevisiae alpha-glucosidase using pNPG as substrate assessed as inhibition constant preincubated for 15 mins followed by substrate addition and measured after 20 mins by spectrophotometric analysis; assay type: protein assay
# Alpha-glucosidase [3] = target: T1, Alpha-glucosidase; experiment: Inhibition of Saccharomyces cerevisiae alpha-glucosidase using pNPG as substrate preincubated for 10 mins followed by substrate addition and measured after 20 mins by spectrophotometric analysis; assay type: protein assay
# Alpha-glucosidase [4] = target: T1, Alpha-glucosidase; experiment: Inhibition of Saccharomyces cerevisiae alpha-glucosidase; assay type: protein assay
# Alpha-glucosidase [5] = target: T1, Alpha-glucosidase; experiment: Inhibition of Saccharomyces cerevisiae alpha-glucosidase using p-nitrophenyl-alpha-D-glucopyranoside as substrate preincubated for 15 mins followed by substrate addition and measured after 30 mins by spectrophotometric analysis; assay type: protein assay
# Homo sapiens = species on record: Homo sapiens; experiment: Potency index, ratio of acarbose IC50 to test compound IC50 for inhibition of alpha-glucosidase (unknown origin)
# [6] = Inhibition of alpha-glucosidase (unknown origin); parameters: species or system Homo sapiens
# Alpha-glucosidase [7] = target: T1, Alpha-glucosidase; experiment: Inhibition of Saccharomyces cerevisiae alpha-glucosidase using p-nitrophenyl-alpha-D-glucopyranoside as substrate preincubated for 5 mins followed by alpha-glucosidase addition and measured after 15 mins by UV-visible spectrophotometric analysis; assay type: protein assay
# [8] = Inhibition of alpha-glucosidase (unknown origin) assessed as reduction in starch digestion preincubated with alpha-amylase for 20 mins followed by alpha-glucosidase addition and measured after 30 mins by absorbance based analysis; parameters: species or system Homo sapiens
# Alpha-glucosidase [9] = target: T1, Alpha-glucosidase; experiment: Inhibition of Saccharomyces cerevisiae alpha-glucosidase using p-nitrophenyl-alpha-D-glucopyranoside as substrate preincubated for 10 mins followed by substrate addition and measured after 30 mins by absorbance based microplate reader analysis; assay type: protein assay
# Alpha-glucosidase [10] = target: T1, Alpha-glucosidase; experiment: Competitive inhibition of Saccharomyces cerevisiae alpha-glucosidase using pNPG as substrate assessed as inhibition constant preincubated for 10 mins followed by substrate addition and measured after 20 mins by spectrophotometric analysis; assay type: protein assay
# Alpha-glucosidase [11] = target: T1, Alpha-glucosidase; experiment: Inhibition of Saccharomyces cerevisiae alpha-glucosidase using p-nitrophenyl-alpha-D-glucopyranoside as substrate incubated for 30 mins by spectrophotometric analysis; assay type: protein assay
# Alpha-glucosidase [12] = target: T1, Alpha-glucosidase; experiment: Inhibition of Saccharomyces cerevisiae alpha-glucosidase using p-nitrophenyl-alpha-D-glucopyranoside as substrate preincubated for 10 mins followed by substrate addition and measured after 30 mins by absorbance based analysis; assay type: protein assay
# Alpha-glucosidase [13] = target: T1, Alpha-glucosidase; experiment: Inhibition of Saccharomyces cerevisiae alpha-glucosidase using p-nitrophenyl-alpha-D-glucopyranoside as substrate preincubated for 5 mins followed by substrate addition and measured after 5 mins by absorbance based analysis; assay type: protein assay
# [14] = Inhibition of alpha-glucosidase (unknown origin) using p-nitrophenyl-alpha-D-glucopyranoside as substrate preincubated for 15 mins followed by substrate addition and measured after 30 mins by multiplate spectrophotometric analysis; parameters: species or system Homo sapiens
# [15] = Inhibition of alpha-glucosidase (unknown origin) using p-nitrophenyl-alpha-D-glucopyranoside as substrate preincubated for 5 mins followed by substrate addition and measured after 5 mins by spectrophotometric analysis; parameters: species or system Homo sapiens
# [16] = Inhibition of alpha-glucosidase (unknown origin) using p-nitrophenyl glucopyranoside as substrate preincubated for 10 mins followed by substrate addition and measured after 30 mins by absorbance based analysis; parameters: species or system Homo sapiens
# [17] = Inhibition of alpha-glucosidase (unknown origin) using p-NPG as substrate preincubated for 5 mins followed by substrate addition and measured after 30 mins by absorbance based analysis; parameters: species or system Homo sapiens
# [18] = target: Alpha-glucosidase (Saccharomyces cerevisiae S288c) (UniProt P53341+P38158+P07265); experiment: Potency index, ratio of acarbose IC50 to test compound IC50 for inhibition of Saccharomyces cerevisiae alpha-glucosidase; assay type: protein assay
structure (smiles),measurement,setting,value
Cc1ccc(-c2nc3c(C(=O)Nc4ccccc4)c(Nc4ccccc4)nn3c(-c3ccc(Br)cc3)c2N)cc1,IC50,Alpha-glucosidase [1],15.2 µM
same,Ki,Alpha-glucosidase [2],12 µM
Cc1ccc(C(c2c(N)c3ccccc3oc2=O)c2c(N)c3ccccc3oc2=O)cc1,Ki,Alpha-glucosidase [2],22.4 µM
same,IC50,Alpha-glucosidase [3],20 µM
Clc1ccc(/C=N/Nc2nnc(-c3ccccc3)c(-c3ccccc3)n2)cc1,IC50,Alpha-glucosidase [4],13.09 µM
CC(C)(C)c1ccc(Cn2cc(CCS3=Nc4cc(Cl)ccc4C3)nn2)cc1 (stereo unspecified),IC50,Alpha-glucosidase [5],20.7 µM
CCOC(=O)CN1C(=O)/C(=N\NC(=O)c2ccc(Cl)cc2)c2ccccc21,Ratio IC50,Homo sapiens,2
same,IC50,[6],14.5 µM
O=C(NNS(=O)(=O)c1cccc(Cl)c1)c1cc2cc(F)ccc2[nH]1,IC50,Alpha-glucosidase [7],7.4 µM
O=C1NC(=S)S/C1=C\c1ccc(Nc2nc3ccccc3o2)cc1,IC50,[8],9.48 µM
Cc1cc2nc(-c3ccc(C(=O)NNC(=S)Nc4ccc([N+](=O)[O-])cc4)cc3)[nH]c2cc1C,IC50,Alpha-glucosidase [9],35.83 µM
CCOC(=O)c1c(SCc2cn(Cc3cccc([N+](=O)[O-])c3)nn2)nnc(-c2ccccc2)c1-c1ccccc1,IC50,Alpha-glucosidase [1],85.6 µM
same,Ki,Alpha-glucosidase [10],82 µM
O=C(CCCSc1nc2ccccc2s1)Nc1cccc2ccccc12,IC50,Alpha-glucosidase [11],11 µM
O=C(NNS(=O)(=O)c1cccc(F)c1)c1cc2cc(F)ccc2[nH]1,IC50,Alpha-glucosidase [7],3.2 µM
N#Cc1ccc2[nH]c(-c3nnc(Nc4ccc(Cl)c(Cl)c4)s3)cc2c1,IC50,Alpha-glucosidase [12],0.95 µM
Oc1ccc(-c2nc3ncccc3[nH]2)cc1O,IC50,Alpha-glucosidase [13],13.5 µM
Cc1cc2nc(NC(=O)CN3C(=O)S/C(=C\c4ccc(Cl)cc4)C3=O)sc2cc1C,IC50,Alpha-glucosidase [4],29.91 µM
CCCCCCSc1nc2ccccc2n1CC(=O)NN1C(=O)CSC1c1ccc(O)c(OC)c1 (stereo unspecified),IC50,[14],10.2 µM
COc1ccc(-c2csc(NC(=O)CSc3nnc(-c4ccc(Br)cc4)c(-c4ccc(Br)cc4)n3)n2)cc1,IC50,Alpha-glucosidase [5],2.85 µM
O=S(=O)(NCCc1c[nH]c2ccccc12)c1cc(F)ccc1Cl,IC50,[15],1.6 µM
O=C(COc1ccc2ccc(=O)oc2c1)N/N=C\c1cc([N+](=O)[O-])ccc1OCCCN1C(=O)c2ccccc2C1=O,IC50,Alpha-glucosidase [4],94.2 µM
N#Cc1ccc(S(=O)(=O)NNC(=O)c2cc3cc(F)ccc3[nH]2)cc1,IC50,Alpha-glucosidase [7],6.2 µM
Fc1ccc(C2=NOC(c3ccccc3)N2c2ccc(F)cc2)cc1 (stereo unspecified),IC50,Alpha-glucosidase [3],256 µM
CC(=O)CC(c1ccc(Br)cc1)C(C(=O)Nc1ccccn1)C(=O)Nc1ccccn1 (stereo unspecified),IC50,Alpha-glucosidase [5],12.8 µM
Nc1nnc(-c2ccc(O)cc2)s1,IC50,[15],2.7 µM
COc1cc2oc(=O)ccc2cc1-c1c(O)cc(O)c2c1O/C(=C\c1ccccc1)C2=O,IC50,Alpha-glucosidase [11],3.55 µM
Oc1ccc(/C=N/c2nnc(-c3ccc(Cl)cc3)s2)cc1,IC50,[15],2.3 µM
O=[N+]([O-])c1ccccc1/C(CSc1nnc2c(n1)[nH]c1ccccc12)=N\c1nnc(-c2cccc(O)c2)s1,Ratio IC50,Homo sapiens,15
same,IC50,[6],2.5 µM
FC(F)(F)c1cccc(-c2nnc(-c3c[nH]c4ncccc34)o2)c1,IC50,[16],0.46 µM
CCOC(=O)CN1C(=O)/C(=N\NC(=O)c2ccccc2Cl)c2ccccc21,Ratio IC50,Homo sapiens,2
same,IC50,[6],13.2 µM
O=c1oc2ccccc2cc1-c1nn(-c2ccccc2)cc1-c1nc(-c2ccccc2)c(-c2ccccc2)[nH]1,IC50,Alpha-glucosidase [12],2.78 µM
O=C(CSC(=S)Nc1cccc([N+](=O)[O-])c1)c1cc2ccccc2oc1=O,IC50,Alpha-glucosidase [3],85 µM
O=c1oc2ccccc2cc1-c1nn(C(Nc2ccccc2Oc2ccccc2NC(c2cccc(Br)c2)n2nc(-c3cc4ccccc4oc3=O)oc2=O)c2cccc(Br)c2)c(=O)o1 (stereo unspecified),IC50,[17],0.07 µM
COc1ccc(C2=NOC(c3ccccc3)N2c2ccc(OC)cc2)cc1 (stereo unspecified),IC50,Alpha-glucosidase [3],295 µM
Cc1ccc(-n2cc(/C=N/NC(=O)Nc3ccccc3)c(-c3ccc([N+](=O)[O-])cc3)n2)cc1,IC50,Alpha-glucosidase [1],65.1 µM
same,Ki,Alpha-glucosidase [2],87 µM
O=c1cc(-c2ccc(OCc3cn(Cc4cc(Cl)ccc4Cl)nn3)cc2)oc2ccccc12,IC50,Alpha-glucosidase [4],24.37 µM
same,Ratio IC50,[18],35

# Reference: ChEMBL document CHEMBL5360534, “Synthetic α-glucosidase inhibitors as promising anti-diabetic agents: Recent developments and future challenges” (Eur J Med Chem, 2023)
